Laboratory results taken from patent publication US20100249418A1, “NOVEL COMPOUND HAVING AFFINITY FOR AMYLOID” (NIHON MEDI-PHYSICS CO., LTD., priority 2007, published 2010).
Read-outs that look alike come from different tables or passages of the source.

What was measured:
[1] = Measurement of partition coefficient based on the octanol extraction method (log Poctanol); assay type: physicochemical; conditions: octanol / 10 mmol/L phosphate buffer (pH 7.4)
Protocol: Partition coefficients based on the octanol extraction method (hereinafter referred to as log Poctanol) were measured, which are generally known as an indicator of permeability of compounds through the blood-brain barrier (hereinafter referred to as BBB).
Each diethyl ether solution of Compound 1, Compound 2, Compound 3 and Compound 4 as well as a diethyl ether solution of [^123I]-IMPY were each diluted with 10 mg/mL ascorbic acid-containing physiological saline solution, and adjusted to a radioactive concentration of 27-30 MBq/mL. To 2 mL of octanol, 10 μL each of these solutions was added, and 2 mL of 10 mmol/L phosphate buffer (pH 7.4) was added, followed by stirring for 30 seconds. After each mixture was centrifuged (2000 rpm×60 min.) with a low-speed centrifuge (type: CTD4, manufactured by Hitachi Koki Co., Ltd), the octanol layer and the water layer were sampled each in an amount of 1 mL, and subjected to measurement of radioactivity count with an autowell gamma system (Type: ARC-301B, manufactured by Aloka). Using the obtained radioactivity count, log Poctanol was calculated in accordance with the equation (1).

[2] = Measurement of transferability into brain and clearance (radioactive accumulation in brain after intravenous injection); assay type: in vivo, male Wistar rats; conditions: rats; for Radioactive accumulation per unit weight, After 2 min. / Radioactive accumulation per unit weight, After 5 min. / Radioactive accumulation per unit weight, After 30 min. / Radioactive accumulation per unit weight, After 60 min.: brain; for Radioactive accumulation per unit weight, After 2 min.: 2 min after injection; for Radioactive accumulation per unit weight, After 5 min.: 5 min after injection; for Radioactive accumulation per unit weight, After 30 min.: 30 min after injection; for Radioactive accumulation per unit weight, After 60 min.: 60 min after injection; for Transferability to brain and clearance from brain (in words): 2 to 60 min
Protocol: Using Compound 1, Compound 2, Compound 3 and Compound 4, a time course change of radioactive accumulation in brain of male Wistar rats (7-week old) was measured.
Compound 1 in 10 mg/mL ascorbic acid-containing physiological saline solution (27 MBq/mL in radioactive concentration), Compound 2 in 10 mg/mL ascorbic acid-containing physiological saline solution (27 MBq/mL in radioactive concentration), Compound 3 in 10 mg/mL ascorbic acid-containing physiological saline solution (28 MBq/mL in radioactive concentration) and Compound 4 in 10 mg/mL ascorbic acid-containing physiological saline solution (30 MBq/mL in radioactive concentration) were prepared to obtain sample solutions. The sample solutions were injected under thiopental anesthesia into the tail vein of the male Wistar rats (7-week old) (dosage: 0.05 mL, dosed radioactivity: 1.4-1.5 MBq equivalent). The rats were sacrificed by bleeding from abdominal artery, and brains were removed and subjected to measurement of mass of brains and further subjected to measurement of radioactivity (hereinafter referred to as A in this Example) with a single channel analyzer (detector type: SP-20 manufactured by OHYO KOKEN KOGYO Co., Ltd.) 2, 5, 30 and 60 minutes after the injection. Further, the radioactivity level of the rest of the whole body was measured in the same manner as above (hereinafter referred to as B in this Example). Using these measurement results, radioactive accumulation per unit weight of brain (% ID/g) at the respective time points of dissection was calculated in accordance with the following formula (2) (Examples 19 to 22).
Separately, [^123I]-IMPY in 10 mg/mL ascorbic acid-containing physiological saline solution (16 MBq/mL in radioactive concentration) was prepared, the same procedure as above was conducted, and radioactive accumulation per unit weight of brain (% ID/g) at the respective time points of dissection was calculated (Comparative Example 1).
Meanwhile, three animals were used for all Examples and Comparative Example 2 at the respective time points.

[3] = system: Salmonella typhimurium TA98 and TA100; assay: Reverse mutation test (Ames test), overall statement for both strains; assay type: cell-based
Protocol: (§1) In order to examine gene mutagenicity of Compound 5, reverse mutation test using Salmonella typhimurium TA98 and TA100 (hereinafter referred to as Ames test) was conducted.
(§2) The test was conducted without addition of S9mix and with addition of S9mix. Dimethylsulfoxide (hereinafter referred to as DMSO) was used as a negative control. A positive control was 2-(2-furyl)-3-(5-nitro-2-furyl)acrylamide (hereinafter referred to as AF-2) in case S9mix was not added, and 2-aminoanthracene (hereinafter referred to as 2-AA) in case S9mix was added.
(§3) As a sample solution to be added to a test plate, a solution at maximum concentration in which Compound 5 was dissolved in DMSO (concentration of compound: 50 mg/mL) and a sample solution to be added to a test plate at each concentration in which a solution at maximum concentration was diluted with DMSO were prepared. […]

[4] = system: Salmonella typhimurium TA98; assay: Reverse mutation test (Ames test), TA98; assay type: cell-based
Protocol: as §1, §2, §3

[5] = system: Salmonella typhimurium TA100; assay: Reverse mutation test (Ames test), TA100; assay type: cell-based
Protocol: as §1, §2, §3

[6] = reported in WO03/106439; cited from earlier work
[7] = [125I]-labeled, normal mice, cited from earlier work; for Transfer into brain: 2 minutes after administration
amyloid = conditions: [125I]-labeled compounds, cited from earlier work
[8] = [11C]-labeled, rats; cited from earlier work

Compound	logPoctanol value [1]	Radioactive accumulation per unit weight, After 2 min. [2] [% ID/g]	Radioactive accumulation per unit weight, After 5 min. [2] [% ID/g]	Radioactive accumulation per unit weight, After 30 min. [2] [% ID/g]	Radioactive accumulation per unit weight, After 60 min. [2] [% ID/g]	Transferability to brain and clearance from brain (in words) [2]	also measured
2-(4′-hydroxyphenyl)-6-[^123I]iodo-3-methylimidazo[1,2-a]pyridine [Compound 3]	2.5	0.50	0.34	0.05	0.01	excellent transferability to brain and rapid clearance from brain	
2-[4′-(2″-hydroxyethoxy)phenyl]-6-[^123I]iodo-3-methylimidazo[1,2-a]pyridine [Compound 2]	2.2	0.57	0.36	0.05	0.01	excellent transferability to brain and rapid clearance from brain	Number of reverse mutation colonies relative to the group treated with the negative control ([3]; regardless of addition of S9mix and the addition amount of sample, negative control DMSO): less than two times
3-cyano-2-[4′-(2″-hydroxyethoxy)phenyl]-6-[^123I]iodoimidazo[1,2-a]pyridine [Compound 4]	3.0	0.82	0.67	0.18	0.04	excellent transferability to brain and rapid clearance from brain	
Cc1c(-c2ccc(F)cc2)nc2ccc([123I])cn12 [Compound 1, 2-(4′-fluorophenyl)-6-[^123I]iodo-3-methylimidazo[1,2-a]pyridine]	2.3	0.91	0.60	0.08	0.03	excellent transferability to brain and rapid clearance from brain	
Cc1c(-c2ccc(OCCO)cc2)nc2ccc(I)cn12 [Compound 5, 2-[4′-(2″-hydroxyethoxy)phenyl]-6-iodo-3-methylimidazo[1,2-a]pyridine]							Mutagenicity, TA98, with addition of S9mix ([4]; with addition of S9mix): Negative; Mutagenicity, TA98, without addition of S9mix ([4]; without addition of S9mix): Negative; Mutagenicity, TA100, with addition of S9mix ([5]; with addition of S9mix): Negative; Mutagenicity, TA100, without addition of S9mix ([5]; without addition of S9mix): Negative; Ames test judgement (mutagenicity) ([3]; TA98 and TA100, with and without S9mix): negative in the Ames test and has no mutagenicity
CC(=C(C#N)C#N)c1ccc2cc(N(C)CCF)ccc2c1 [FDDNP, 2-(1-{6-[(2-fluoroethyl)(methyl)amino]-2-naphthyl}ethylidene)malononitrile]							Reverse mutation test result [6]: positive
CN(C)c1ccc(-c2nc3ccc(I)cc3o2)cc1 [IBOX, 6-iodo-2-[4′-(N,N-dimethylamino)phenyl]benzoxazole]							Transfer into brain [7]: transferred into brain; Clearance from normal tissues [7]: insufficient in clearance from normal tissues
CN(C)c1ccc(-c2cn3cc(I)ccc3n2)cc1 [IMPY, 6-iodo-2-[4′-(N,N-dimethylamino)phenyl]imidazo[1,2-a]pyridine]							Reverse mutation test result [6]: positive; Transfer to brain and accumulation at amyloid (amyloid; after administration): transferring to brain and accumulating at amyloid after administration; Clearance from normal tissues (amyloid): rapid clearance from normal tissues
CNc1ccc(/C=C/c2ccc(O)cc2)cc1 [SB-13, (E)-4-methylamino-4′-hydroxystilbene]							Clearance from normal tissues [8]: it cannot be said that the clearance is sufficiently fast
CN(C)c1ccc(-c2nc3ccc(I)cc3s2)cc1 [TZDM, 6-iodo-2-[4′-(N,N-dimethylamino)phenyl]benzothiazole]							Transfer into brain [7]: transferred into brain; Clearance from normal tissues [7]: insufficient in clearance from normal tissues
CN(C)c1ccc(-c2cn3cc([123I])ccc3n2)cc1 [[^123I]-IMPY, reference compound]	1.9	1.19	0.97	0.23	0.09	excellent transferability to brain and rapid clearance from brain	
CN(C)c1ccc(/C=C/c2ccc(I)cc2)cc1 [m-I-SB, (E)-4-dimethylamino-4′-iodostilbene]							Transfer into brain [7]: transferred into brain; Clearance from normal tissues [7]: insufficient in clearance from normal tissues
